Results: ChEMBL document CHEMBL5108012, “Discovery of 2,5-diphenyl-1,3,4-thiadiazole derivatives as HDAC inhibitors with DNA binding affinity” (Eur J Med Chem, 2022)
pIC50: −log10 of the molar value. Values belong to the molecule of their own block, whether it stands above or below them. Activity calls are given as the source filed them. The calls are words filed in the database; no cut-off is given here.

Columns and labels:
[1] = target: Histone deacetylase (HDAC1 and HDAC2) (Homo sapiens, UniProt Q13547+Q92769); experiment: Inhibition of HDAC1/HDAC2 in human HeLa cell nuclear extract using Boc-Lys(Ac)-AMC as substrate and measured by fluorometric method; type: cell-based
Histone deacetylase 1 = Histone deacetylase 1 (Homo sapiens, UniProt Q13547); experiment: Inhibition of HDAC1 in human HeLa cell nuclear extract using Boc-Lys(Ac)-AMC or Boc-Lys(triflouroacetyl)-AMC as substrate incubated for 30 mins and measured by fluorescence assay; type: cell-free
K562 = experiment: Antiproliferative activity against human K562 cells after 48 hrs by CCK-8 assay; type: functional, cell-based; conditions: K562, 48 h
HCT-116 [2] = experiment: Antiproliferative activity against human HCT-116 cells after 48 hrs by CCK-8 assay; type: functional, cell-based; conditions: HCT-116, 48 h
HeLa = experiment: Antiproliferative activity against human HeLa cells after 48 hrs by CCK-8 assay; type: functional, cell-based
HEL = experiment: Antiproliferative activity against human HEL cells after 48 hrs by CCK-8 assay; type: functional, cell-based
Histone deacetylase 8 = target: T1, Histone deacetylase 8 (Homo sapiens, UniProt Q9BY41); experiment: Inhibition of HDAC8 in human HeLa cell nuclear extract using Boc-Lys(Ac)-AMC or Boc-Lys(triflouroacetyl)-AMC as substrate incubated for 30 mins and measured by fluorescence assay; type: cell-free
T1 sequence (Q9BY41 whole entry): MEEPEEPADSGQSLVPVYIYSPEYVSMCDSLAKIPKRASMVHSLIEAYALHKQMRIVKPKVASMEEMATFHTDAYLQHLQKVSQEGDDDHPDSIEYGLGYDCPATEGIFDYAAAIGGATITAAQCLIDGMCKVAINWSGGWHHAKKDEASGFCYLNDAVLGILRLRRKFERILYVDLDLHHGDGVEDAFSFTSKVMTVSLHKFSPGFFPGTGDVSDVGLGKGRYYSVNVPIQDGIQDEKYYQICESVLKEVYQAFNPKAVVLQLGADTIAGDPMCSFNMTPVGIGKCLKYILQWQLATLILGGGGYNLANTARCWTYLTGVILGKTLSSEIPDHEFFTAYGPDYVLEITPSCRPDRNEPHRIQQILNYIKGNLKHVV

HepG2 = experiment: Antiproliferative activity against human HepG2 cells after 48 hrs by CCK-8 assay; type: functional, cell-based; conditions: HepG2, 48 h
MOLT-4 = experiment: Antiproliferative activity against human MOLT-4 cells after 48 hrs by CCK-8 assay; type: functional, cell-based; conditions: MOLT-4, 48 h
[3] = target: T2, Protein deacetylase HDAC6 (Homo sapiens, UniProt Q9UBN7); experiment: Inhibition of HDAC6 in human HeLa cell nuclear extract using Boc-Lys(Ac)-AMC or Boc-Lys(triflouroacetyl)-AMC as substrate incubated for 30 mins and measured by fluorescence assay; type: cell-free
T2 sequence (Q9UBN7 whole entry): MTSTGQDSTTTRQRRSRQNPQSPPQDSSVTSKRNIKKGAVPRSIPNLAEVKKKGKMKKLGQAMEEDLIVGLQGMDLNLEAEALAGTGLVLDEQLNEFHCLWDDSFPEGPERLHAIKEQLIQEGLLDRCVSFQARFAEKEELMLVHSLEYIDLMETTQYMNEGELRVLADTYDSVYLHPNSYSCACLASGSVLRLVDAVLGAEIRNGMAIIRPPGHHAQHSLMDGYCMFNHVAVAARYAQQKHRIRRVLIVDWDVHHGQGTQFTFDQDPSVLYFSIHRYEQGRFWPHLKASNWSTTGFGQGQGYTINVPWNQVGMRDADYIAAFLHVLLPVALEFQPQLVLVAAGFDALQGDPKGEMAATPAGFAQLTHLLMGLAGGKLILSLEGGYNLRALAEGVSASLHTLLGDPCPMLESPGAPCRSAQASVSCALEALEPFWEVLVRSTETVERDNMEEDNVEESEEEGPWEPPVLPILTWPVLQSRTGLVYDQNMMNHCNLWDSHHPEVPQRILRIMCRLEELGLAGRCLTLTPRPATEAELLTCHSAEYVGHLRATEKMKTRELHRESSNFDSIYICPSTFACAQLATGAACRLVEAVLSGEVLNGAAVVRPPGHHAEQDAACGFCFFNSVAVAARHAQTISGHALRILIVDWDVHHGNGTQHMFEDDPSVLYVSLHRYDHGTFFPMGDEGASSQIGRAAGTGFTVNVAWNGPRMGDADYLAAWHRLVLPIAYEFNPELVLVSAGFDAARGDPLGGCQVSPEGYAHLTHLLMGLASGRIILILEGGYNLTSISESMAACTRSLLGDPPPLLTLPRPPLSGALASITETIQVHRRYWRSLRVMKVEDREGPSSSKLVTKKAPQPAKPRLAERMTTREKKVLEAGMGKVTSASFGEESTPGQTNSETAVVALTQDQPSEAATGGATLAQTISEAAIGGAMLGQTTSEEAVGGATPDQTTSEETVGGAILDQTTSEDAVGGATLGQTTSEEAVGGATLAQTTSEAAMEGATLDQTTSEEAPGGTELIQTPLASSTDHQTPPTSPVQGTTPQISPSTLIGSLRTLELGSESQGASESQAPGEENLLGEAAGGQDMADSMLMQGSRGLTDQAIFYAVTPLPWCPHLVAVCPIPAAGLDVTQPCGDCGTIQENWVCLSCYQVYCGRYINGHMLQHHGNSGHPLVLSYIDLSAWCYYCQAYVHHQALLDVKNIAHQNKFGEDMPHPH

MC-38 = experiment: Antiproliferative activity against mouse MC38 cells after 48 hrs by CCK-8 assay; type: functional, cell-based; conditions: MC-38, 48 h
Calf thymus DNA [4] = experiment: Binding affinity to calf thymus DNA at 50 uM incubated for 30 mins and measured by fluorescence spectroscopy; type: nucleic-acid assay; conditions: Bos taurus
Calf thymus DNA [5] = experiment: Binding affinity to calf thymus DNA at 50 uM incubated for 30 mins and measured by UV-vis absorption spectroscopy; type: nucleic-acid assay; conditions: Bos taurus
HCT-116 [6] = experiment: Induction of apoptosis in human HCT-116 cells assessed as late apoptotic cells at 1.5 uM incubated for 48 hrs by PI and annexin V-FITC staining based flow cytometry (reference value: 3.4%); type: functional
HCT-116 [7] = experiment: Induction of apoptosis in human HCT-116 cells assessed as early apoptotic cells at 1.5 uM incubated for 48 hrs by PI and annexin V-FITC staining based flow cytometry (reference value: 3.4%); type: functional

Sequence of Histone deacetylase 1 (Q13547 whole entry): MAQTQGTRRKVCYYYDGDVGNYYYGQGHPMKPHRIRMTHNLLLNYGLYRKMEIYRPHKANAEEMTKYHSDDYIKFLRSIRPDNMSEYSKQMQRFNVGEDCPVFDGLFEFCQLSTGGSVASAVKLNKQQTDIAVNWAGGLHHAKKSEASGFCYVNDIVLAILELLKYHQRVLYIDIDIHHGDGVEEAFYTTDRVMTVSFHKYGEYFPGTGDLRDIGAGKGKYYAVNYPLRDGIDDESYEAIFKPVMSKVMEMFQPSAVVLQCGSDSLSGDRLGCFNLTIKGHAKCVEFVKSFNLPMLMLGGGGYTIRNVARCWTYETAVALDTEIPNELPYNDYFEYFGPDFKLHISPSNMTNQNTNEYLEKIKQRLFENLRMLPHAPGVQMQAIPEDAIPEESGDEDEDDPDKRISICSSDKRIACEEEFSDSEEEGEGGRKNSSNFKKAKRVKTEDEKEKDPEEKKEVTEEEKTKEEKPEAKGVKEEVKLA

SMILES: COc1cc(-c2nnc(-c3cccc(OCCCCCCC(=O)NO)c3)s2)cc(OC)c1OC
IC50 [1]: 366 nM

SMILES: O=C(CCCCOc1cccc(-c2nnc(-c3ccccc3Cl)s2)c1)NO
IC50 [1]: 656 nM

SMILES: COc1cc(-c2nnc(-c3cccc(OCCCC(=O)NO)c3)s2)cc(OC)c1OC
IC50 [1]: > 1000 nM

SMILES: COc1cc(-c2nnc(-c3ccc(OCCCCCC(=O)NO)cc3)s2)cc(OC)c1OC
IC50 [1]: > 1000 nM

SMILES: COc1cc(-c2nnc(-c3cccc(OCCCCC(=O)NO)c3)s2)cc(OC)c1OC
IC50 [1]: > 1000 nM

SMILES: COc1cc(-c2nnc(-c3ccc(OCCCCCCCC(=O)NO)cc3)s2)cc(OC)c1OC
IC50 [1]: > 1000 nM

SMILES: COc1cc(-c2nnc(-c3ccc(OCCCC(=O)NO)cc3)s2)cc(OC)c1OC
IC50 [1]: > 1000 nM

SMILES: COc1cc(-c2nnc(-c3cccc(OCC(=O)NO)c3)s2)cc(OC)c1OC
IC50 [1]: > 1000 nM

SMILES: COc1cc(-c2nnc(-c3cccc(OCCCCCC(=O)NO)c3)s2)cc(O)c1OC
IC50 [1]: > 1000 nM

SMILES: O=C(COc1cccc(-c2nnc(-c3ccccc3)s2)c1)NO
IC50 [1]: > 1000 nM

SMILES: O=C(CCCCCCOc1cccc(-c2nnc(-c3ccccc3Cl)s2)c1)NO
pIC50 (Histone deacetylase 1): 6.77
pIC50 (K562): 5.11
pIC50 (HCT-116 [2]): 5.00
pIC50 (HeLa): 4.77
pIC50 (HEL): 5.09
IC50 [1]: 168 nM
pIC50 (Histone deacetylase 8): 5.82
pIC50 (HepG2): 4.68
pIC50 (MOLT-4): 5.62
pIC50 [3]: 7.52
pIC50 (MC-38): 4.80

SMILES: O=C(COc1cccc(-c2nnc(-c3ccccc3Cl)s2)c1)NO
IC50 [1]: > 1000 nM

SMILES: COc1cc(-c2nnc(-c3ccc(OCCCCC(=O)NO)cc3)s2)cc(OC)c1OC
IC50 [1]: > 1000 nM

SMILES: CN1CCN(c2ccc3[nH]c(-c4ccc5[nH]c(-c6ccc(O)cc6)nc5c4)nc3c2)CC1
Activity (Calf thymus DNA [4]): Active
Activity (Calf thymus DNA [5]): Active

SMILES: O=C(CCCCCOc1cccc(-c2nnc(-c3ccccc3Cl)s2)c1)NO
IC50 [1]: 339 nM

SMILES: COc1cc(-c2nnc(-c3ccc(OCC(=O)NO)cc3)s2)cc(OC)c1OC
IC50 [1]: > 1000 nM

SMILES: COc1cc(-c2nnc(-c3cccc(OCCCCCCCC(=O)NO)c3)s2)cc(OC)c1OC
IC50 [1]: 395 nM

SMILES: O=C(CCCCCCCOc1cccc(-c2nnc(-c3ccccc3Cl)s2)c1)NO
IC50 [1]: 461 nM

SMILES: O=C(COc1ccc(-c2nnc(-c3ccccc3Cl)s2)cc1)NO
IC50 [1]: > 1000 nM

SMILES: O=C(CCCCCCC(=O)Nc1ccccc1)NO [VORINOSTAT]
Activity (HCT-116 [6]): 5.05%
Activity (HCT-116 [7]): 5.05%

SMILES: COc1cc(-c2nnc(-c3ccc(OCCCCCCC(=O)NO)cc3)s2)cc(OC)c1OC
IC50 [1]: 537 nM

SMILES: O=C(CCCOc1cccc(-c2nnc(-c3ccccc3Cl)s2)c1)NO
IC50 [1]: > 1000 nM

Second part, led by results:

IC50 [1]: > 1000 nM
SMILES: O=C(CCCCCCOc1ccc(-c2nnc(-c3ccccc3Cl)s2)cc1)NO

IC50 [1]: 538 nM
SMILES: O=C(CCCCCCCOc1cccc(-c2nnc(-c3ccccc3)s2)c1)NO

IC50 [1]: > 1000 nM
SMILES: O=C(COc1ccc(-c2nnc(-c3ccccc3)s2)cc1)NO

IC50 [1]: > 1000 nM
SMILES: O=C(CCCOc1ccc(-c2nnc(-c3ccccc3)s2)cc1)NO

pIC50 (Histone deacetylase 1): 7.09
pIC50 (K562): 4.80
pIC50 (HCT-116 [2]): 4.70
pIC50 (HeLa): < 4.30
IC50 [1]: 199 nM
pIC50 (Histone deacetylase 8): < 5.00
pIC50 (HepG2): < 4.30
pIC50 (MOLT-4): 5.51
pIC50 [3]: 7.19
SMILES: O=C(CCCCCCOc1ccc(-c2nnc(-c3ccccc3)s2)cc1)NO
pIC50 (HEL): < 5.00
pIC50 (MC-38): 4.85

IC50 [1]: > 1000 nM
SMILES: O=C(CCCCCOc1ccc(-c2nnc(-c3ccccc3Cl)s2)cc1)NO

IC50 [1]: > 1000 nM
SMILES: O=C(CCCCOc1ccc(-c2nnc(-c3ccccc3Cl)s2)cc1)NO

pIC50 (Histone deacetylase 1): 6.75
pIC50 (K562): 5.68
pIC50 (HCT-116 [2]): 5.70
pIC50 (HeLa): 5.72
IC50 [1]: 118 nM
pIC50 (Histone deacetylase 8): 5.51
pIC50 (HepG2): 4.96
pIC50 (MOLT-4): 6.31
pIC50 [3]: 7.49
SMILES: O=C(CCCCOc1cccc(-c2nnc(-c3ccccc3)s2)c1)NO
pIC50 (HEL): 6.24
pIC50 (MC-38): 5.15

IC50 [1]: > 1000 nM
SMILES: O=C(CCCCCCCOc1ccc(-c2nnc(-c3ccccc3Cl)s2)cc1)NO

IC50 [1]: > 1000 nM
SMILES: O=C(CCCCCCCOc1ccc(-c2nnc(-c3ccccc3)s2)cc1)NO

IC50 [1]: 362 nM
SMILES: O=C(CCCCOc1ccc(-c2nnc(-c3ccccc3)s2)cc1)NO

IC50 [1]: > 1000 nM
SMILES: O=C(CCCOc1cccc(-c2nnc(-c3ccccc3)s2)c1)NO

IC50 [1]: > 1000 nM
SMILES: O=C(CCCCCOc1ccc(-c2nnc(-c3ccccc3)s2)cc1)NO

IC50 [1]: > 1000 nM
SMILES: O=C(CCCOc1ccc(-c2nnc(-c3ccccc3Cl)s2)cc1)NO

pIC50 (Histone deacetylase 1): 7.72
pIC50 (K562): 5.49
pIC50 (HCT-116 [2]): 5.54
pIC50 (HeLa): 5.31
IC50 [1]: 57 nM
pIC50 (Histone deacetylase 8): 5.62
pIC50 (HepG2): 5.66
pIC50 (MOLT-4): 6.15
pIC50 [3]: 6.73
SMILES: O=C(CCCCCCOc1cccc(-c2nnc(-c3ccccc3)s2)c1)NO
pIC50 (HEL): 5.59
pIC50 (MC-38): 5.62
